From patent publication US12606561B2, “Substituted pyrazolo[1,5-a][1,3,5]triazines as CDK inhibitors” (QURIENT CO., LTD., priority 2018, dated 2026)

Key:
CDK5/p25 = target: T1, CDK5/p25 (Homo sapiens, UniProt Q00535); assay: Enzymatic assay for CDK5 (LANCE Ultra kinase assay, FRET based); assay type: biochemical; settings: ATP at Km
T1 construct: purchased Invitrogen PR8543B
Method in brief: (§1)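 TR-FRET kinase assay at ATP Km with ULight-MBP peptide (68 nM) and Eu-anti-phospho-MBP antibody; CDK2/Cyclin A at […], CDK5/p25 at […]. 8-dose 4-fold compound dilutions; 60 min kinase reaction at 23° C., EDTA stop, 60 min detection, read at 615/665 nm.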

OVCAR-3 = OVCAR-3 viability assay (CellTiter-Glo, 72 hours); assay type: cell-based; settings: Homo sapiens; OVCAR-3 cells
Method in brief: (§2)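 CellTiter-Glo luminescence read-out after 72 h compound exposure at 37° C, 5% CO2, duplicates. Seeding densities: MV4-11 1×10^4 cells/well, OVCAR-3 5×10^3, A2780 1×10^3. Dose range 0.0015 uM to 10 uM, added 24 h post-plating; DMSO control, final <0.1%.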

CDK2/Cyclin A = target: T2, CDK2/Cyclin A (Homo sapiens, UniProt P24941); assay: Enzymatic assay for CDK2 (LANCE Ultra kinase assay, FRET based); assay type: biochemical; settings: ATP at Km
T2 construct: purchased Invitrogen PV6290
Method in brief: as §1

CDK1/Cyclin B = target: T3, CDK1/Cyclin B (Homo sapiens, UniProt P06493); assay: Enzymatic assay for CDK1 (LANCE Ultra kinase assay, FRET based); assay type: biochemical; settings: ATP at Km; read-out: CDK1 enzymatic activity IC50
T3 construct: purchased Invitrogen PR4768C
Method in brief: (§3)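 FRET read-out: Eu-labeled anti-phospho-antibody binding a phosphorylated ULight peptide. Purified CDK–cyclin complex, ATP at Km.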

CDK7/Cyclin H/MNAT1 = target: T4, CDK7/Cyclin H/MNAT1 (Homo sapiens, UniProt P50613); assay: Enzymatic assay for CDK7 (LANCE Ultra kinase assay, FRET based); assay type: biochemical; settings: for IC50: ATP at Km
T4 construct: purchased Invitrogen PR6749B
Method in brief: as §3

A2780 = A2780 viability assay (CellTiter-Glo, 72 hours); assay type: cell-based; settings: Homo sapiens; A2780 cells
Method in brief: as §2

T1 sequence (Q00535 whole entry): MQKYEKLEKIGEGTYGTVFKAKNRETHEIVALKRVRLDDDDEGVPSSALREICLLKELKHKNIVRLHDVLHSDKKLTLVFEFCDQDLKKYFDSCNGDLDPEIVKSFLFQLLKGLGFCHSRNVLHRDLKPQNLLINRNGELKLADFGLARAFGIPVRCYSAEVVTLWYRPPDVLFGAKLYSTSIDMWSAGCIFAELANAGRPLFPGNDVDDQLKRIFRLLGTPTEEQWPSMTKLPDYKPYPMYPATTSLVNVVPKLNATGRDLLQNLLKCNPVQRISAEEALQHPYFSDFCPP
T1 sequence (Q15078 99-307 partner limits assumed): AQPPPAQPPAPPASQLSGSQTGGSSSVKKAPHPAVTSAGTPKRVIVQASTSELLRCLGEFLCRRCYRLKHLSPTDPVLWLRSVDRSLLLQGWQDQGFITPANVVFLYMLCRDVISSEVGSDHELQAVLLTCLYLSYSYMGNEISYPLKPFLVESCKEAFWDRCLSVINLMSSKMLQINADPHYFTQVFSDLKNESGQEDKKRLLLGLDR
T3 sequence (P06493 whole entry): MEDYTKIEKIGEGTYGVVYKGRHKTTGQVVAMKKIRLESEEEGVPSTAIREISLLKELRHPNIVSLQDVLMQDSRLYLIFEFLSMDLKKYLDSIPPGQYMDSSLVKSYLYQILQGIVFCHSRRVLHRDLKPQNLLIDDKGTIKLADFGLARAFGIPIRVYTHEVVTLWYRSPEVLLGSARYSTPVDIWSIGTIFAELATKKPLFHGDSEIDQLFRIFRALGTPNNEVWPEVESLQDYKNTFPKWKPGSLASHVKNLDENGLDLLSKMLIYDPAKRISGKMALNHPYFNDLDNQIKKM
T3 sequence (P14635 whole entry partner): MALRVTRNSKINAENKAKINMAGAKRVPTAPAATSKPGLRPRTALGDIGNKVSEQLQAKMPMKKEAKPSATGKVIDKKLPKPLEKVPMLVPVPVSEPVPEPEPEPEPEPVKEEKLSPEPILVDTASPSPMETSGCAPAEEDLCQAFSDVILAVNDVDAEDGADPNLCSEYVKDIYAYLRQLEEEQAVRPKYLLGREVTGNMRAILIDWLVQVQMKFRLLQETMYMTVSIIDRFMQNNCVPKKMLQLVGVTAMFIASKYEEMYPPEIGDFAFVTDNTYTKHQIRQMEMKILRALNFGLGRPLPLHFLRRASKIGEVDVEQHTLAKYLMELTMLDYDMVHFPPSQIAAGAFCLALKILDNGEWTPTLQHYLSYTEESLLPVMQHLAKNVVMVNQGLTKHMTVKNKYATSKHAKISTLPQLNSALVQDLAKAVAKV
T4 sequence (P50613 whole entry): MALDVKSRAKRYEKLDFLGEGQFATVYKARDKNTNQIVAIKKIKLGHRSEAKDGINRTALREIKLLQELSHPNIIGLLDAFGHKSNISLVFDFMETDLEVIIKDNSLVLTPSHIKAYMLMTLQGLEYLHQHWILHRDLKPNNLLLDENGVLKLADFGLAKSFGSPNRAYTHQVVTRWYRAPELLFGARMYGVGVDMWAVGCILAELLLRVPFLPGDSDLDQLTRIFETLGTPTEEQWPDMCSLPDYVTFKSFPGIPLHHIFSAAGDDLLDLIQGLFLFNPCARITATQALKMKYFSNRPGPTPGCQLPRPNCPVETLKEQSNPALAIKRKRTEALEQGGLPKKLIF
T4 sequence (P51946 whole entry partner): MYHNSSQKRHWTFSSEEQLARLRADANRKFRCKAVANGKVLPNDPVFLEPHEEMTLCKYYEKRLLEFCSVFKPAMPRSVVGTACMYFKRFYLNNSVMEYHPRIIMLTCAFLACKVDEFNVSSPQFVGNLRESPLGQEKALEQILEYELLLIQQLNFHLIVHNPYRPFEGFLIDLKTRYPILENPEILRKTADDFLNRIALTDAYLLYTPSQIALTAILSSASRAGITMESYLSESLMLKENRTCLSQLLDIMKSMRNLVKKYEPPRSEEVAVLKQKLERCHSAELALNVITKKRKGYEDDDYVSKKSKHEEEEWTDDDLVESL
T4 sequence (P51948 whole entry partner): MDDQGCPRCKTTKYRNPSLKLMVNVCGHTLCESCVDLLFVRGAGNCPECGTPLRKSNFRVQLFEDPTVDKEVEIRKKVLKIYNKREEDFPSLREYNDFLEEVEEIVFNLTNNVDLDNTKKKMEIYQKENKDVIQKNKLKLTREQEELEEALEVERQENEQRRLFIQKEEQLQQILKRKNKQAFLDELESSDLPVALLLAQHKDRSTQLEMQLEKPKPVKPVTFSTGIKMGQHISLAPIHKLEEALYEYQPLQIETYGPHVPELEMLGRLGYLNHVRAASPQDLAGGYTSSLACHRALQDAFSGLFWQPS

Structure (SMILES) | IC50 (CDK5/p25) | IC50 (OVCAR-3) | IC50 (CDK2/Cyclin A) | IC50 (CDK1/Cyclin B) | IC50 (CDK7/Cyclin H/MNAT1) | CDK1/CDK7: Selectivity of CDK7 inhibition over CDK1 inhibition (CDK7/Cyclin H/MNAT1) | CDK2/CDK7: Selectivity of CDK7 inhibition over CDK2 inhibition (CDK7/Cyclin H/MNAT1) | CDK5/CDK7: Selectivity of CDK7 inhibition over CDK5 inhibition (CDK7/Cyclin H/MNAT1) | IC50 (A2780)
C=C(F)C(=O)Nc1ccc2c(-c3ccccc3CNc3nc(N4CCC(OC(F)(F)F)CC4)nc4c(C(C)C)cnn34)nccc2c1 [Compound 86] | > 1000 nM | < 1000 nM | > 1000 nM | > 1000 nM | > 1000 nM | C (C indicates [fold] ≤ 50) | C (C indicates [fold] ≤ 50) | C (C indicates [fold] ≤ 50) | 1000 to 10000 nM
C=C(F)C(=O)Nc1ccc2c(-c3ccccc3CNc3cc(C)nc4c(C(C)C)cnn34)nccc2c1 [Compound 156] | > 1000 nM | 1000 to 10000 nM | > 1000 nM | > 1000 nM | 100 to 1000 nM | B (B indicates 50 < [fold] ≤ 500) | B (B indicates 50 < [fold] ≤ 500) | B (B indicates 50 < [fold] ≤ 500) | < 1000 nM
CC(C)c1cnn2c(NCc3ccccc3-c3nccc4cc(NC(=O)/C=C/CN(C)C)ccc34)nc(N3CCC4(CCN(C)C4)CC3)nc12 [Compound 121] | > 1000 nM | < 1000 nM | > 1000 nM | > 1000 nM | < 100 nM | B (B indicates 50 < [fold] ≤ 500) | B (B indicates 50 < [fold] ≤ 500) | B (B indicates 50 < [fold] ≤ 500) | < 1000 nM
C=C(F)C(=O)Nc1ccc2c(-c3ccccc3CNc3nc(NC4CCC(OC)C4)nc4c(C(C)C)cnn34)nccc2c1 (single isomer, unassigned) [Compound 97] | > 1000 nM | < 1000 nM | > 1000 nM | > 1000 nM | 100 to 1000 nM | B (B indicates 50 < [fold] ≤ 500) | B (B indicates 50 < [fold] ≤ 500) | B (B indicates 50 < [fold] ≤ 500) | < 1000 nM
C=C(F)C(=O)Nc1ccc2c(-c3ccccc3CNc3cc(NC[C@H]4CCNC[C@@H]4O)nc4c(C(C)C)cnn34)nccc2c1 [Compound 82] | > 1000 nM | < 1000 nM | > 1000 nM | > 1000 nM | < 100 nM | A (A indicates [fold] > 500) | A (A indicates [fold] > 500) | A (A indicates [fold] > 500) | < 1000 nM
COC1CC2CCC(C1)N2c1cc(NCc2ccccc2-c2nccc3cc(NC(=O)/C=C/CN(C)C)ccc23)n2ncc(C(C)C)c2n1 (stereo not drawn) [Compound 125] | > 1000 nM | < 1000 nM | > 1000 nM | > 1000 nM | 100 to 1000 nM | B (B indicates 50 < [fold] ≤ 500) | B (B indicates 50 < [fold] ≤ 500) | B (B indicates 50 < [fold] ≤ 500) | < 1000 nM
CC(C)c1cnn2c(NCc3ccccc3-c3nccc4cc(NC(=O)/C=C/CN(C)C)ccc34)nc(N3CCOC4(CCN(C)CC4)C3)nc12 [Compound 120] | > 1000 nM | < 1000 nM | > 1000 nM | > 1000 nM | < 100 nM | A (A indicates [fold] > 500) | A (A indicates [fold] > 500) | A (A indicates [fold] > 500) | < 1000 nM
CC(C)c1cnn2c(NCc3ccccc3-c3nccc4cc(NC(=O)/C=C/CN(C)C)ccc34)nc(N3CC4CCC(C3)N4C)nc12 [Compound 123] | > 1000 nM | < 1000 nM | > 1000 nM | > 1000 nM | < 100 nM | A (A indicates [fold] > 500) | A (A indicates [fold] > 500) | A (A indicates [fold] > 500) | < 1000 nM
CC(C)c1cnn2c(NCc3ccccc3-c3nccc4cc(NC(=O)/C=C/CN(C)C)ccc34)nc(NC3CC4CCC(C3)N4C)nc12 (stereo not drawn) [Compound 130] | > 1000 nM | 1000 to 10000 nM | > 1000 nM | > 1000 nM | < 100 nM | A (A indicates [fold] > 500) | A (A indicates [fold] > 500) | A (A indicates [fold] > 500) | < 1000 nM
C=C(F)C(=O)Nc1ccc2c(-c3ccccc3CNc3nc(NC4CCOC4)nc4c(C(C)C)cnn34)nccc2c1 (stereo not drawn) [Compound 92] | > 1000 nM | < 1000 nM | > 1000 nM | > 1000 nM | 100 to 1000 nM | B (B indicates 50 < [fold] ≤ 500) | B (B indicates 50 < [fold] ≤ 500) | B (B indicates 50 < [fold] ≤ 500) | < 1000 nM
CC(C)c1cnn2c(NCc3ccccc3-c3nccc4cc(NC(=O)/C=C/CN(C)C)ccc34)nc(N3CCC4(CC3)OCCO4)nc12 [Compound 110] | > 1000 nM | < 1000 nM | > 1000 nM | > 1000 nM | < 100 nM | B (B indicates 50 < [fold] ≤ 500) | B (B indicates 50 < [fold] ≤ 500) | B (B indicates 50 < [fold] ≤ 500) | < 1000 nM
C=C(F)C(=O)Nc1ccc2c(-c3ccccc3CNc3nc(N4CO[C@H]5CN(C)CC[C@@H]5C4)nc4c(C(C)C)cnn34)nccc2c1 [Compound 165] | > 1000 nM | < 1000 nM | > 1000 nM | > 1000 nM | 100 to 1000 nM | B (B indicates 50 < [fold] ≤ 500) | B (B indicates 50 < [fold] ≤ 500) | B (B indicates 50 < [fold] ≤ 500) | < 1000 nM
CC(C)c1cnn2c(NCc3ccccc3-c3nccc4cc(NC(=O)/C=C/CN(C)C)ccc34)nc(N3CCC(S(=O)(=O)N(C)C)CC3)nc12 [Compound 126] | > 1000 nM | < 1000 nM | > 1000 nM | > 1000 nM | 100 to 1000 nM | B (B indicates 50 < [fold] ≤ 500) | B (B indicates 50 < [fold] ≤ 500) | B (B indicates 50 < [fold] ≤ 500) | < 1000 nM
C=C(F)C(=O)Nc1ccc2c(-c3ccccc3CNc3nc(NC4CC(OC)C4)nc4c(C(C)C)cnn34)nccc2c1 (stereo not drawn) [Compound 99] | > 1000 nM | < 1000 nM | > 1000 nM | > 1000 nM | 100 to 1000 nM | B (B indicates 50 < [fold] ≤ 500) | B (B indicates 50 < [fold] ≤ 500) | B (B indicates 50 < [fold] ≤ 500) | < 1000 nM
